Positions count from the first letter of the chain named. Read-outs that look alike come from different tables or passages of the source.
Experiments:
[1] = molecular target: T1, A1R (Homo sapiens, UniProt P30542); design: method as in Lagarias et al.[19]; conditions: 1 nM [3H]CCPA; ref Lagarias et al.[19]; read-out: Radioligand binding Ki A1R; cited from earlier work
T1 construct: expressed in transfected cells
T1 sequence (P30542 1-326): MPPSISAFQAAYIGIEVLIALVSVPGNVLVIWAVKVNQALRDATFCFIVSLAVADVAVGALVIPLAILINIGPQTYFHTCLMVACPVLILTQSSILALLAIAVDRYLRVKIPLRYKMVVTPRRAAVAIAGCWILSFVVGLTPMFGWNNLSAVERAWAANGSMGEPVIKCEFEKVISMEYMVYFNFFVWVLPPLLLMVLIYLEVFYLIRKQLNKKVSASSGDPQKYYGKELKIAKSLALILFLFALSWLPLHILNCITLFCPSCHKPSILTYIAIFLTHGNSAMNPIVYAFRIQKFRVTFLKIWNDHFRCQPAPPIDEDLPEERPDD

[2] = in vitro; conditions: human, plasma
[3] = molecular target: T2, A2AR (Homo sapiens, UniProt P29274); design: method as in Lagarias et al.[19]; conditions: 10 nM [3H]NECA; ref Lagarias et al.[19]; read-out: Radioligand binding Ki A2AR; cited from earlier work
T2 construct: expressed in transfected cells; host or cells: CHO cells, membrane preparation
T2 sequence (P29274 whole entry): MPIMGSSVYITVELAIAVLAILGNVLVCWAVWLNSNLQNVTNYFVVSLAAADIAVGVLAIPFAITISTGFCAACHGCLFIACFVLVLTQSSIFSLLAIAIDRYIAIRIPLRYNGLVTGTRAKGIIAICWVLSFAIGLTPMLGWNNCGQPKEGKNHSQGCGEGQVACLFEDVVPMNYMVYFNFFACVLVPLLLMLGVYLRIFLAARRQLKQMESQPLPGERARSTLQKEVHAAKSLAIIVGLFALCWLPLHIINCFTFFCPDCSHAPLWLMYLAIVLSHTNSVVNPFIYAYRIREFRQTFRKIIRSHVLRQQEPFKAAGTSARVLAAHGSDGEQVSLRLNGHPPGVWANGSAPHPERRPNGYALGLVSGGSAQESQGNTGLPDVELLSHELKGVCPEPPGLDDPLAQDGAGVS

[4] = Human plasma stability; conditions: 1 μM compound
[5] = physchem; conditions: PBS, pH 7.4
[6] = Half-life in PBS (pH 7.4); conditions: PBS pH 7.4, 1 μM compound
[7] = molecular target: T3, rat A3R (Rattus norvegicus, UniProt P28647); experiment: NanoBRET ligand-binding, Nluc-rat A3R HEK 293 cells, AV039 tracer
T3 sequence (P28647 1-320): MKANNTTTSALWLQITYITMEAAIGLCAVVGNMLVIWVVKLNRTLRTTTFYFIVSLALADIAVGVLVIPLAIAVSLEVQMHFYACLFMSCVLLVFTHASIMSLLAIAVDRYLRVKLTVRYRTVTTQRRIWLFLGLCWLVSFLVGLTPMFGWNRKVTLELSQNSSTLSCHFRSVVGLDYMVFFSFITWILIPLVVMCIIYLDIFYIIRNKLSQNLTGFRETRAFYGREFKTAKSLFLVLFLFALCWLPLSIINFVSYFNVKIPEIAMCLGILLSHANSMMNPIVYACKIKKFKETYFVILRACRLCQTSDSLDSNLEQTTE

[8] = molecular target: T1, A1R; experiment: Radioligand binding at A1R ([3H]CCPA, CHO cell membranes); conditions: 1 nM [3H]CCPA; three independent experiments
Experimental: (§1) All pharmacological methods followed the procedures as described in the literature. In brief, membranes for radioligand binding were prepared from CHO cells stably transfected with hAR subtypes in a two-step procedure. In the first step, cell fragments and nuclei were removed at 1000×g and then the crude membrane fraction was sedimented from the supernatant at 100,000×g. The membrane pellet was resuspended in the buffer used for the respective binding experiments and it was frozen in liquid nitrogen and stored at – 80 °C. […] Ki values from competition experiments were calculated using Prism (GraphPad Software, La Jolla, CA, USA) assuming competitive interaction with a single binding site.

[9] = molecular target: T2, A2AR; experiment: Radioligand binding at A2AR ([3H]NECA, CHO cell membranes); conditions: 10 nM [3H]NECA; three independent experiments
Experimental: as §1

[10] = molecular target: T4, A3R (Homo sapiens, UniProt P0DMS8); experiment: Radioligand binding at A3R ([3H]HEMADO, CHO cell membranes); conditions: 1 nM [3H]HEMADO; three independent experiments
T4 sequence (P0DMS8 1-318): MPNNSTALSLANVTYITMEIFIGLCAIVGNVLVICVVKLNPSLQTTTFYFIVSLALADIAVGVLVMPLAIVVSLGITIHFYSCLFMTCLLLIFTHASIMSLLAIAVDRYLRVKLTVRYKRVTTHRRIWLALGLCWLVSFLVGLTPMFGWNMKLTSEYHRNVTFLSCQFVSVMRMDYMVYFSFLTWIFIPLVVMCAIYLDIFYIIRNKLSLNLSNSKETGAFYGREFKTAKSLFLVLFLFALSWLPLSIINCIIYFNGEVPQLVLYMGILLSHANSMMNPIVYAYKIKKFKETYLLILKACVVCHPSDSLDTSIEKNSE

[11] = molecular target: T4, A3R; conditions: for cAMP accumulation Mean difference between 'NECA' and compound: 10 μM forskolin + NECA IC80 + 1 μM compound
[12] = molecular target: T4, A3R; experiment: HEMADO induced cAMP inhibition at the A3R; assay type: cell-based; conditions: HEMADO only
[13] = molecular target: T5, WT A3R (Homo sapiens, UniProt P0DMS8); conditions: + DMSO
T5 sequence (P0DMS8 1-318): T4 sequence (P0DMS8 1-318)

[14] = molecular target: T6, I249A A3R (Homo sapiens, UniProt P0DMS8, I249A); conditions: + DMSO
T6 sequence (P0DMS8 1-318 I249A): T4 sequence (P0DMS8 1-318) with I249A

[15] = molecular target: T7, L90A A3R (Homo sapiens, UniProt P0DMS8, L90A); conditions: + DMSO
T7 sequence (P0DMS8 1-318 L90A): T4 sequence (P0DMS8 1-318) with L90A

[16] = molecular target: T8, M177A A3R (Homo sapiens, UniProt P0DMS8, M177A); conditions: + DMSO
T8 sequence (P0DMS8 1-318 M177A): T4 sequence (P0DMS8 1-318) with M177A

[17] = molecular target: T9, L264A A3R (Homo sapiens, UniProt P0DMS8, L264A); conditions: + DMSO
T9 sequence (P0DMS8 1-318 L264A): T4 sequence (P0DMS8 1-318) with L264A

[18] = molecular target: T10, V169A A3R (Homo sapiens, UniProt P0DMS8, V169A); conditions: + DMSO
T10 sequence (P0DMS8 1-318 V169A): T4 sequence (P0DMS8 1-318) with V169A

[19] = molecular target: T5, WT A3R; experiment: IB-MECA stimulated cAMP inhibition at WT A3R Flp-In-CHO, with Schild analysis; assay type: cell-based; conditions: IB-MECA only; difference between Emin and basal
[20] = molecular target: T1, A1R; experiment: NECA stimulated cAMP inhibition in CHO-K1 cells expressing A1R; assay type: cell-based; conditions: NECA only
[21] = molecular target: T4, A3R; experiment: NECA stimulated cAMP inhibition in A3R Flp-In CHO cells; assay type: cell-based; conditions: NECA only; lower plateau
[22] = 10 μM forskolin + NECA IC80 (3.16 nM) + 1 μM compound, mean ± SEM, n = 3

Cc1nc(C(=N)NOC(=O)c2c(-c3c(Cl)cccc3Cl)noc2C)cs1 [Compound K18, O4-{[3-(2,6-dichlorophenyl)-5-methylisoxazol-4-yl]carbonyl}-2-methyl-1,3-thiazole-4-carbohydroximamide]
Ki [1]: > 100 µM | half-life at 1 μM [2]: > 2 h | Ki [3]: > 100 µM | percentage remaining after 120 min [4]: 90% | half-life at 1 μM [5]: > 4 h | percentage remaining at 240 min [6]: 87%

Cc1onc(-c2ccccc2Cl)c1C(=O)O/N=C(\N)c1ccccn1 [Compound K32]
binding at rat A3R ([7]; no binding detected below the concentration of 10 μM): very weak binding | pKi ([7]; rat A3R, 100 nM AV039, BRET ratio at 5 minutes, Cheng-Prusoff): 4.05 ± 0.10 | Ki [8]: > 100 µM | Ki [9]: > 100 µM

N/C(=N\OC(=O)c1ccccc1-c1ccccc1)c1cccnc1 [Compound K33]
Ki [10]: > 30 µM | Ki [8]: > 100 µM | cAMP accumulation Mean [11, 22]: 71.97 ±4.74 %10 μM forskolin response | cAMP accumulation Mean difference between 'NECA' and compound [11]: -11.65 %10 μM forskolin response | Ki [9]: > 100 µM

N/C(=N\OC(=O)c1ccc(-c2ccccc2)cc1)c1ccc(Br)cc1 [Compound K36]
Ki [10]: > 100 µM | Ki [8]: > 100 µM | cAMP accumulation Mean [11, 22]: 61.96 ±1.51 %10 μM forskolin response | cAMP accumulation Mean difference between 'NECA' and compound [11]: -1.64 %10 μM forskolin response | Ki [9]: > 100 µM

CCCCC#Cc1nc(NC)c2ncn([C@@H]3O[C@H](CO)[C@@H](O)[C@H]3O)c2n1 [HEMADO, (2R,3R,4S,5R)-2-(2-hex-1-ynyl-6-methylaminopurin-9-yl)-5-(hydroxymethyl)oxolane-3,4-diol]
Span [12]: 107.3 ±4.7 | IC50 ([12]; 10 µM forskolin, n = 3, read-out: pIC50 of HEMADO (converted)): 0.0288 nM | Emin ([12]; lower plateau): -3.48 ±2.7 % 10 µM forskolin response | Basal ([12]; upper plateau): 103.8 ±4.1

CNC(=O)[C@H]1O[C@@H](n2cnc3c(NCc4cccc(I)c4)ncnc32)[C@H](O)[C@@H]1O [IB-MECA, (2S,3S,4R,5R)-3,4-dihydroxy-5-[6-[(3-iodophenyl)methylamino]purin-9-yl]-N-methyloxolane-2-carboxamide]
Basal [13]: 60.1 ± 0.9 %100 μM forskolin | Emin [13]: 35.0 ± 1.6 %100 μM forskolin | Span [13]: 25.1 ± 2.0 | Basal [14]: 62.6 ± 2.7 %100 μM forskolin | Emin [14]: 34.9 ± 2.2 %100 μM forskolin | Span [14]: 27.7 ± 1.3 | Basal [15]: 73.2 ± 2.7 %100 μM forskolin | Emin [15]: 43.3 ± 3.2 %100 μM forskolin | Span [15]: 29.9 ± 1.8 | Basal [16]: 70.2 ± 2.0 %100 μM forskolin | Emin [16]: 38.6 ± 2.7 %100 μM forskolin | Span [16]: 31.6 ± 2.0 | Basal [17]: 72.0 ± 2.3 %100 μM forskolin | Emin [17]: 41.1 ± 2.2 %100 μM forskolin | Span [17]: 30.9 ± 2.2 | Basal [18]: 55.3 ± 2.4 %100 μM forskolin | Emin [18]: 30.9 ± 1.7 %100 μM forskolin | Span [19]: 116.1 ± 3.5

CCNC(=O)[C@H]1O[C@@H](n2cnc3c(N)ncnc32)[C@H](O)[C@@H]1O [NECA]
Span [20]: 111.4 ±4.0 | Emin ([20]; lower plateau): -5.1 ±1.0 % forskolin response | Basal ([20]; upper plateau): 107.5 ±3.4 | Emin [21]: -5.02 ±2.4 % 10 µM forskolin response, relative to NECA | cAMP accumulation Mean ([11]; 10 μM forskolin + NECA IC80 (3.16 nM), no test compound): 60.32 ± 3.41 %10 μM forskolin response

CC(C)[N+](C)(CCOC(=O)C1c2ccccc2Oc2ccccc21)C(C)C [propantheline, reference compound]
half-life at 1 μM [2]: 0.917 h | half-life at 1 μM [5]: > 4 h
